test system: F. succinogenes HC4; test: Phenotypic tests for antibiotic resistance; type: cell-based, Fibrobacter succinogenes; conditions: liquid filter paper semi-synthetic medium, anaerobic, 48 hours at 38° C.
Description: Eight antibiotics were tested according to EFSA recommendations for Gram-negative bacteria (31). Before being added to the filter paper semi-synthetic medium, the antibiotics were sterilized by filtration (0.22 μm filters). 24-hours cultures of strain HC4 were inoculated into media containing each antibiotic. A positive control without antibiotics was inoculated from the same culture of strain HC4 and two cultures were prepared for each condition. After 48 hours of incubation at 38° C., the observation of filter paper degradation allowed estimating the bacterial growth. In case of no degradation, a sample of liquid was taken and frozen at −20° C. for further determination of succinate production.

| Compound | Concentrations to inhibit growth [mg/L] |
| --- | --- |
| Colistin | 64 |
| CN(C)[C@@H]1C(=O)C(C(N)=O)=C(O)[C@@]2(O)C(=O)C3=C(O)c4c(O)cccc4[C@@](C)(O)[C@H]3C[C@@H]12 [Tetracyclin] | 1 |
| NC[C@H]1O[C@H](O[C@H]2[C@H](O)[C@@H](O[C@H]3O[C@H](CO)[C@@H](O)[C@H](N)[C@H]3O)[C@H](N)C[C@@H]2N)[C@H](O)[C@@H](O)[C@@H]1O [Kanamycin] | 8000 |
| [H]/N=C(/N)N[C@H]1[C@H](O)[C@@H](O)[C@H](O[C@@H]2O[C@@H](C)[C@](O)(C=O)[C@H]2O[C@@H]2O[C@@H](CO)[C@H](O)[C@@H](O)[C@@H]2NC)[C@@H](N/C(N)=N\[H])[C@@H]1O [Streptomycin] | 2048 |
| C[C@@H]1O[C@@H]1P(=O)(O)O [Fosfomycin] | 512 |
| Gentamicin | 128 |
| CC1(C)S[C@@H]2[C@H](NC(=O)[C@H](N)c3ccccc3)C(=O)N2[C@H]1C(=O)O [Ampicillin] | 32 |

— US12636322B2, “Bacterial strain with high cellulolytic activity” (INSTITUT NATIONAL SUPERIEUR DES SCIENCES AGRONOMIQUES DE …, priority 2021, dated 2026)
